Legend:
[1] = test system: C1-S C2C12 mouse myoblasts; test: Firefly luciferase reporter without CUG repeats (control); type: cell-based; conditions: C1-S cells (no CUG repeats), 3 days
Procedure: The ability of selected compounds to inhibit the formation of CUG^exp RNA-MBNL1 complexes in mouse myoblasts was then evaluated. […] Cells were grown in 100 μl growth media in 96-well plates to 10% confluency. […] Culture media was replaced with fresh media containing 1% WST-1 reagent (Roche). After 15-20 minutes of incubation, the WST-1 containing media was transferred to a clear 96-well plate, and the absorbances at 450 nm and 690 nm measured with a PerkinElmer EnVision Plate Reader. Cells were gently rinsed (1×PBS) before incubation at -20° C. in 100 μl 1X Passive Lysis Buffer (Promega) for 10 minutes. Immediately before luminescence detection, 20 μl of each lysate was mixed with 50 μl of Luciferase Assay Reagent (Promega) in a fresh opaque-white 96-well plate. Luminescence values were normalized for well-to-well variations in viable cell numbers by dividing by the corresponding (A450 nm-[…] nm) values of the WST-1 containing media. […] Thus, CUG^exp binding compounds are capable of releasing the sequestered mRNA transcripts into the cytoplasm for translation.

C1-S cells = test: Total protein in cell lysates (Bradford assay); type: cell-based, mouse; conditions: increasing concentration
C5-14 cells = type: cell-based, mouse
Excerpt: Formation of (CUG)800 RNA-MBNL1 complexes in the C5-14 cell line suppresses translation of this mRNA and, therefore, suppresses the cellular level of luciferase Inhibition of protein complexation to the (CUG)800 RNA allows translation to occur, restoring luciferase expression. A second cell line (C1-S) carrying an analogous luciferase construct lacking the CUG repeats in the 3′-UTR was used as a positive control for luciferase expression. […] It was hypothesized that binding of the compounds of the present invention to the (CUG)800 repeat in C5-14 cells would likewise promote release of the luciferase transcripts from the nucleus, resulting in increased luciferase expression and activity. In contrast, luciferase activity in positive control (C1-S) cells should not be affected by the presence of CUG RNA binding compounds. […] The fact that this effect is not observed for compounds 10 and 11 likely results from their greater selectivity for CUG repeats. Thus, CUG^exp binding compounds are capable of releasing the sequestered mRNA transcripts into the cytoplasm for translation.

HSA^LR transgenic mice [2] = test: MBNL1-dependent splicing in mouse myotonic dystrophy model (RT-PCR, vastus muscle); type: in vivo; conditions: 40 mg/kg intraperitoneally once per day for 5 days
Procedure: Mouse handling and experimental procedures were conducted in accordance with the Association for Assessment and Accreditation of Laboratory Animal Care. […] Age- and gender-matched HSA^LR mice (12-16 weeks old) were injected intraperitoneally with 40 mg/kg of compounds or saline alone once per day for 5 days. Mice were sacrificed one day after the last injection, and vastus muscle was obtained for splicing analysis. RNA extraction, cDNA preparation, and RT-PCR were performed as described previously. The PCR products were electrophoresed on agarose gels for separation, and scanned with a laser fluorimager (Typhoon, GE Healthcare). Quantitative analysis of amplified products was performed by ImageQuant software (Molecular Dynamics). Differences between two groups were evaluated by unpaired Student's t-test. A critical test of a compound's performance is its ability to function in vivo. DM1 has several well-studied mouse models (Gomes-Pereira et al., “Myotonic Dystrophy Mouse Models: Towards Rational Therapy Development,” Trends Mol. Med. 17:506-517 (2011), which is hereby incorporated by reference in its entirety). Compound activity in the HSA^LR mouse model, in which transgenic mice carry a long CTG repeat inserted into the human skeletal actin (HSA) gene in skeletal muscle (Mankodi, “Myotonic Dystrophy in Transgenic Mice Expressing an Expanded CUG Repeat,” Science 289:1769-1772 (2000), which is hereby incorporated by reference in its entirety) was examined. […] They also display aberrant splicing of genes, including Clcn1 and Atp2a1, which are hallmarks of nuclear transcript sequestration.

HSA^LR transgenic mice [3] = test: Acute toxicity observed in treated mice; type: in vivo, mouse; conditions: 40 mg/kg intraperitoneally once per day for 5 days
Procedure: Mouse handling and experimental procedures were conducted in accordance with the Association for Assessment and Accreditation of Laboratory Animal Care. HSA^LR transgenic mice in line 20b expressing human skeletal actin RNA with 250 CUG repeats in the 3′ UTR were previously described (Mankodi, “Myotonic Dystrophy in Transgenic Mice Expressing an Expanded CUG Repeat,” Science 289:1769-1772 (2000), which is hereby incorporated by reference in its entirety). Age- and gender-matched HSA^LR mice (12-16 weeks old) were injected intraperitoneally with 40 mg/kg of compounds or saline alone once per day for 5 days. Mice were sacrificed one day after the last injection, and vastus muscle was obtained for splicing analysis. RNA extraction, cDNA preparation, and RT-PCR were performed as described previously. The PCR products were electrophoresed on agarose gels for separation, and scanned with a laser fluorimager (Typhoon, GE Healthcare). Quantitative analysis of amplified products was performed by ImageQuant software (Molecular Dynamics). Differences between two groups were evaluated by unpaired Student's t-test.

mouse C2C12 myoblasts = test: Cell permeability by fluorescence microscopy; type: cell-based; conditions: 12 h, 125 μM, intrinsic fluorescence
Procedure: For cell permeability studies, human fibroblasts or mouse myoblasts grown to 80% confluence were exposed to compounds for 12 hours in a 96 well tissue culture plate. After removal of the culture media (DMEM, with 10% FBS, 1% pen-strep (GIBCO)) the cells were washed twice with PBS to remove excess compounds. Cells were then imaged while in buffer under a fluorescence microscope (Olympus IX70) in the 96-well plate using a 460 nm emission filter.

Row | SMILES | luciferase signal [1] | concentration of total protein in cell lysates (C1-S cells) | concentration of total protein in cell lysates (C5-14 cells) | improvement of Atp2a1 splicing (HSA^LR transgenic mice [2]) | improvement of Clcn1 splicing (HSA^LR transgenic mice [2]) | acute toxicity effects in mice (HSA^LR transgenic mice [3]) | cell membrane penetration / localization (mouse C2C12 myoblasts)
1 | CCc1nc2cc3ccccc3cc2cc1C(=O)N1CCC[C@H]1C(=O)N[C@@H](C/C=C\C[C@H](NC(=O)[C@@H]1CCCN1C(=O)c1cc2cc3ccccc3cc2nc1CC)C(=O)N[C@@H](CCCCN)C(=O)NCCCN)C(=O)N[C@@H](CCCCN)C(=O)NCCCN [Compound 4] | concentration-dependent decrease in luciferase activity | decreasing level of protein expression | decreasing level of protein expression | qualitatively appeared to restore splicing | modest but statistically significant (P=0.0115) improvement | significant acute toxicity effects | 
2 | CCc1nc2cc3ccccc3cc2cc1C(=O)N1CCC[C@H]1C(=O)N[C@@H](C/C=C/C[C@H](NC(=O)[C@@H]1CCCN1C(=O)c1cc2cc3ccccc3cc2nc1CC)C(=O)N[C@@H](CCCCN)C(=O)NCCCN)C(=O)N[C@@H](CCCCN)C(=O)NCCCN [Compound 5] |  |  |  |  |  |  | readily penetrate cell membranes and localize in the nucleus
